26 compounds from US9546168B2, “ERK inhibitors” (Merck Sharp & Dohme Corp., priority 2013, dated 2017) can be followed below.

Chain of phosphorylated active hERK2 enzyme (P28482 whole entry): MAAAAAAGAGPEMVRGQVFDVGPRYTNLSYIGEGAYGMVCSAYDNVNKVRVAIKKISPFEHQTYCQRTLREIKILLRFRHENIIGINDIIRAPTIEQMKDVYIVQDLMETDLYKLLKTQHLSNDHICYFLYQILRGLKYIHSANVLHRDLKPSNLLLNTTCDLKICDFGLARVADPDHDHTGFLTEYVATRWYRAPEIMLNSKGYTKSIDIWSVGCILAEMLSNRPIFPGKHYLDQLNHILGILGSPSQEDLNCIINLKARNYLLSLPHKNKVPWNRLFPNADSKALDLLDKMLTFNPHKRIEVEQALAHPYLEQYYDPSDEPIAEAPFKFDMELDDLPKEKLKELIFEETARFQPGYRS

The assay has as its target phosphorylated active hERK2 enzyme (Homo sapiens (Human), UniProt P28482). The assay can be described thus: Active Human ERK2 (hERK2) Activity Assay (IMAP-FP). In kind it is biochemical. Conditions: 0.5 nM hERK2, 30 μM ATP, 10 point titration. The procedure:
Active Human ERK2 (hERK2) Activity Assay:
Activated ERK2 activity was determined in an IMAP-FP assay (Molecular Devices). Using this assay format, the potency (IC50) of each compound was determined from a 10 point (1:3 serial dilution, 3 μM starting compound concentration) titration curve using the following outlined procedure. […] Following a 15 minute compound & enzyme incubation, each reaction was initiated by the addition of 10 μL kinase buffer containing 2.45 μM ERK2 IMAP substrate peptides and 75 μM ATP. The final reaction in each well of 25 μL consists of 0.5 nM hERK2, 900 nM unlabeled peptide, 80 nM labeled-peptide, and 30 μM ATP. Phosphorylation reactions were allowed to proceed for 60 minutes and were immediately quenched by the addition of 60 μL IMAP detection beads (1:1000 dilutions) in IMAP binding buffer (Molecular Devices) with 24 mM NaCl. Plates were read on EnVision reader after 60 minutes binding equilibration using Fluorescence Polarization protocol (Perkin Elmer).
Broadly, the IC50 is the concentration that gives 50% inhibition. Lower therefore signals higher potency. The compound `Cc1cc(-c2n[nH]c3cc(NC(=O)N[C@H](C)c4ccccc4)nc(C)c23)ccn1` [Example 1, (R)-1-(4-Methyl-3-(2-methylpyridin-4-yl)-1H-pyrazolo[4,3-c]pyridin-6-yl)-3-(1-phenylethyl)urea] yielded an IC50 of 370 pM.

Turning to `Cc1nc(NC(=O)N[C@H](C)c2ccccc2)cc2[nH]nc(-c3ccnc(F)c3)c12` [Example 2, 1-[3-(2-fluoropyridin-4-yl)-4-methyl-1H-pyrazolo[4,3-c]pyridin-6-yl]-3-[(1R)-1-phenylethyl]urea], the IC50 worked out at 1240 pM.

The compound `C[C@@H](NC(=O)Nc1cc2[nH]nc(-c3ccnc(F)c3)c2c(CO)n1)c1ccccc1` [Example 3, (R)-1-(3-(2-fluoropyridin-4-yl)-4-(hydroxymethyl)-1H-pyrazolo[4,3-c]pyridin-6-yl)-3-(1-phenylethyl)urea] had a 50% inhibitory concentration (IC50) of 920 pM.

Regarding `Cc1cc(-c2n[nH]c3cc(NC(=O)N[C@H](C)c4ccccc4)nc(CO)c23)ccn1` [Example 4, (R)-1-(4-(hydroxymethyl)-3-(2-methylpyridin-4-yl)-1H-pyrazolo[4,3-c]pyridin-6-yl)-3-(1-phenylethyl)urea], half-maximal inhibition (IC50) required 390 pM.

As to `C[C@@H](NC(=O)Nc1cc2[nH]nc(C3CC3)c2c(CO)n1)c1ccccc1` [Example 5, (R)-1-(3-cyclopropyl-4-(hydroxymethyl)-1H-pyrazolo[4,3-c]pyridin-6-yl)-3-(1-phenylethyl)urea], the IC50 came out at 720 pM.

In turn, `CC(C)(O)[C@@H](NC(=O)Nc1cc2[nH]nc(C3CC3)c2c(CO)n1)c1ccccc1` [Example 6, 1-[3-cyclopropyl-4-(hydroxymethyl)-1H-pyrazolo[4,3-c]pyridin-6-yl]-3-[(1S)-2-hydroxy-2-methyl-1-phenylpropyl]urea] displayed an IC50 of 4340 pM.

For `CC(C)(O)[C@@H](NC(=O)Nc1cc2[nH]nc(C3CC3)c2c(CO)n1)c1ccc(F)cc1` [Example 7, 1-[3-cyclopropyl-4-(hydroxymethyl)-1H-pyrazolo[4,3-c]pyridin-6-yl]-3-[(1S)-1-(4-fluorophenyl)-2-hydroxy-2-methylpropyl]urea], the midpoint of inhibition, the IC50, lay at 830 pM.

`C[C@@H](O)[C@@H](NC(=O)Nc1cc2[nH]nc(C3CC3)c2c(CO)n1)c1ccccc1` [Example 9, 1-[3-cyclopropyl-4-(hydroxymethyl)-1H-pyrazolo[4,3-c]pyridin-6-yl]-3-[(1S,2R)-2-hydroxy-1-phenylpropyl]urea]: the IC50 amounted to 750 pM.

In turn, `Cc1cc(-c2n[nH]c3cc(NC(=O)N[C@H](COC(F)F)c4ccccc4)nc(CO)c23)ccn1` [Example 10, 1-[(1S)-2-(difluoromethoxy)-1-phenylethyl]-3-[4-(hydroxymethyl)-3-(2-methylpyridin-4-yl)-1H-pyrazolo[4,3-c]pyridin-6-yl]urea] came in with an IC50 of 660 pM.

For `C[C@@H](NC(=O)Nc1cc2[nH]nc(-c3ccc(F)cc3)c2c(CO)n1)c1ccccc1` [Example 11, 1-[3-(4-fluorophenyl)-4-(hydroxymethyl)-1H-pyrazolo[4,3-c]pyridin-6-yl]-3-[(1R)-1-phenylethyl]urea], it took 450 pM to reach half-maximal inhibition (IC50).

Compound `C[C@@H](NC(=O)Nc1cc2[nH]nc(-c3ccnc(C#N)c3)c2c(CO)n1)c1ccccc1` [Example 12, 1-[3-(2-cyanopyridin-4-yl)-4-(hydroxymethyl)-1H-pyrazolo[4,3-c]pyridin-6-yl]-3-[(1R)-1-phenylethyl]urea] displayed a 50% inhibitory concentration (IC50) of 1640 pM.

Compound `CC(C)(O)[C@@H](NC(=O)Nc1cc2[nH]nc(-c3ccc(F)cc3)c2c(CO)n1)c1ccccc1` [Example 13, 1-[3-(4-fluorophenyl)-4-(hydroxymethyl)-1H-pyrazolo[4,3-c]pyridin-6-yl]-3-[(1S)-2-hydroxy-2-methyl-1-phenylpropyl]urea] returned an IC50 of 310 pM.

With `CC(C)(O)[C@@H](NC(=O)Nc1cc2[nH]nc(-c3ccc(F)cc3)c2c(CO)n1)c1ccc(F)cc1` [Example 15, 1-[(1S)-1-(4-fluorophenyl)-2-hydroxy-2-methylpropyl]-3-[3-(4-fluorophenyl)-4-(hydroxymethyl)-1H-pyrazolo[4,3-c]pyridin-6-yl]urea], the IC50 came out at 290 pM.

The compound `CC(C)(C)[C@@H](NC(=O)Nc1cc2[nH]nc(-c3ccc(F)cc3)c2c(CO)n1)c1ccccc1` [Example 17, 1-[(1R)-2,2-dimethyl-1-phenylpropyl]-3-[3-(4-fluorophenyl)-4-(hydroxymethyl)-1H-pyrazolo[4,3-c]pyridin-6-yl]urea] registered a half-maximal inhibitory concentration (IC50) of 8640 pM.

In turn, `CC(C)(O)[C@@H](NC(=O)Nc1cc2[nH]nc(-c3ccccc3)c2c(CO)n1)c1ccccc1` [Example 18, 1-[(1S)-2-hydroxy-2-methyl-1-phenylpropyl]-3-[4-(hydroxymethyl)-3-phenyl-1H-pyrazolo[4,3-c]pyridin-6-yl]urea] displayed a 50% inhibitory concentration (IC50) of 370 pM.

For `CC(C)(O)[C@@H](NC(=O)Nc1cc2[nH]nc(-c3ccc(C#N)cc3)c2c(CO)n1)c1ccccc1` [Example 19, 1-[3-(4-cyanophenyl)-4-(hydroxymethyl)-1H-pyrazolo[4,3-c]pyridin-6-yl]-3-[(1S)-2-hydroxy-2-methyl-1-phenylpropyl]urea], half-maximal inhibition (IC50) was put at 530 pM.

`COCc1nc(NC(=O)N[C@H](C)c2ccccc2)cc2[nH]nc(-c3ccnc(C)c3)c12` [Example 20, (R)-1-(4-(Methoxymethyl)-3-(2-methylpyridin-4-yl)-1H-pyrazolo[4,3-c]pyridin-6-yl)-3-(1-phenylethyl)urea] yielded a half-maximal inhibitory concentration (IC50) of 1130 pM.

On to `Cc1nc(NC(=O)N[C@@H](c2ccccc2)C(C)(C)O)cc2[nH]nc(C(F)F)c12` [Example 21, (S)-1-(3-(difluoromethyl)-4-methyl-1H-pyrazolo[4,3-c]pyridin-6-yl)-3-(2-hydroxy-2-methyl-1-phenylpropyl)urea], for which the midpoint of inhibition, the IC50, lay at 610 pM.

In turn, `CC(C)(O)[C@@H](NC(=O)Nc1cc2[nH]nc(C(F)F)c2c(CO)n1)c1ccccc1` [Example 22, (S)-1-(3-(difluoromethyl)-4-(hydroxymethyl)-1H-pyrazolo[4,3-c]pyridin-6-yl)-3-(2-hydroxy-2-methyl-1-phenylpropyl)urea] returned an IC50 of 750 pM.

In turn, `CC(C)(O)[C@@H](NC(=O)Nc1cc2[nH]nc(C(F)F)c2c(CO)n1)c1ccc(F)cc1` [Example 23, 1-[3-(difluoromethyl)-4-(hydroxymethyl)-1H-pyrazolo[4,3-c]pyridin-6-yl]-3-[(1S)-1-(4-fluorophenyl)-2-hydroxy-2-methylpropyl]urea] returned an IC50 of 490 pM.

In turn, `C[C@@H](NC(=O)Nc1cc2[nH]nc(C(F)F)c2c(CO)n1)c1ccccc1` [Example 24, 1-[3-(difluoromethyl)-4-(hydroxymethyl)-1H-pyrazolo[4,3-c]pyridin-6-yl]-3-[(1R)-1-phenylethyl]urea] returned an IC50 of 1250 pM.

With `C[C@@H](NC(=O)Nc1cc2[nH]nc(CO)c2c(CO)n1)c1ccccc1` [Example 25, (R)-1-(3,4-bis(hydroxymethyl)-1H-pyrazolo[4,3-c]pyridin-6-yl)-3-(1-phenylethyl)urea], the IC50 was determined as 1850 pM.

Regarding `CC(=O)c1n[nH]c2cc(NC(=O)N[C@H](C)c3ccccc3)nc(CO)c12` [Example 26, (R)-1-(3-acetyl-4-(hydroxymethyl)-1H-pyrazolo[4,3-c]pyridin-6-yl)-3-(1-phenylethyl)urea], it took 12700 pM to reach half-maximal inhibition (IC50).

Compound `CC(O)c1n[nH]c2cc(NC(=O)N[C@H](C)c3ccccc3)nc(CO)c12` (stereo partly drawn) [Example 27, 1-(3-(1-hydroxyethyl)-4-(hydroxymethyl)-1H-pyrazolo[4,3-c]pyridin-6-yl)-3-((R)-1-phenylethyl)urea] came in with an IC50 of 5520 pM.

Regarding `CC(F)(F)c1n[nH]c2cc(NC(=O)N[C@@H](c3ccccc3)C(C)(C)O)nc(CO)c12` [Example 28, (S)-1-(3-(1,1-difluoroethyl)-4-(hydroxymethyl)-1H-pyrazolo[4,3-c]pyridin-6-yl)-3-(2-hydroxy-2-methyl-1-phenylpropyl)urea], half-maximal inhibition (IC50) required 14100 pM.

For `C[C@@H](NC(=O)Nc1cc2[nH]nc(C(F)(F)F)c2c(CO)n1)c1ccccc1` [Example 29, (R)-1-(4-(hydroxymethyl)-3-(trifluoromethyl)-1H-pyrazolo[4,3-c]pyridin-6-yl)-3-(1-phenylethyl)urea], the IC50 stood at 13200 pM.
